# Key:
# Barnyard grass (BG) [1] = assay: Pre-emergence herbicide test; format: in vivo; details: Echinochloa crus-galli, 336 h, two weeks after treatment
# Method in brief: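 Greenhouse pre-emergence spray test: pots seeded one day before treatment received compound at rates of 8 or 4 lb/acre (38 gal/acre). Visual injury/control scores for Echinochloa crus-galli taken at two weeks, with watering by sub-irrigation only.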
# Crabgrass (CG) [2] = assay: Pre-emergence herbicide test; format: in vivo, Digitaria sanquinalis; details: Digitaria sanguinalis, pre-emergence, 336 h, two weeks after treatment
# Method in brief: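 Crabgrass (Digitaria sanquinalis) was surface seeded in 3' plastic pots of potting soil, covered with screened soil, and watered by sub-irrigation in greenhouse trays. Pots were seeded one day before spraying in a hood with a moving belt and fixed nozzle. Plants stayed in the greenhouse on sub-irrigation, and pre-emergence control was rated visually two weeks after treatment.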
# [3] = Acute oral toxicity in rats; details: rat, in vivo
# Bean (BN) [4] = assay: Post-emergence herbicide test; format: in vivo, Phaseolus vulgaris var. Black Valentine; details: Phaseolus vulgaris, post-emergence, 336 h, two weeks after treatment
# Method in brief: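 Bean seedlings (Phaseolus vulgaris var. Black Valentine) were grown in potting soil in 3' pots until the primary leaves expanded. They were then sprayed under a hood with a removable belt and fixed nozzle, using 50 ml formulations. Afterward they were returned to the greenhouse and watered only by sub-irrigation. Percent control was judged visually two weeks after treatment.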
# Corn (CN) [5] = assay: Post-emergence herbicide test; format: in vivo; details: Zea mays, 336 h, two weeks after treatment
# Method in brief: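 Greenhouse seedlings grown in potting soil and sprayed post-emergence at 8 lbs compound/acre (formulations also made for 4 lbs/acre) in 38 gallons/acre spray volume. Watering by sub-irrigation only. Injury or control rated visually two weeks after treatment.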
# Crabgrass (CG) [6] = assay: Post-emergence herbicide test; format: in vivo, Digitaria sanquinalis; details: Digitaria sanguinalis, post-emergence, 336 h, two weeks after treatment
# Method in brief: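 Crabgrass (Digitaria sanquinalis) was surface seeded individually in 3' plastic pots of potting soil, covered with screened soil, and watered by sub-irrigation in greenhouse trays. Planting was staggered so seedlings reached the target stage together. Post-emergence sprays were applied in a hood with a removable belt and fixed nozzle, and control was visually rated two weeks after treatment.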
# Corn (CN) [7] = assay: Pre-emergence herbicide test; format: in vivo; details: Zea mays, 336 h, two weeks after treatment
# Method in brief: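 Visual injury/control ratings were made 2 weeks post-spray on corn pots seeded (4 seeds, seed-diameter depth) the day before treatment. Application was a belt-hood spray of 38 gal/acre delivering 8 lbs active per acre, with a 4 lbs/acre rate also formulated. Watering was by sub-irrigation throughout.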
# Barnyard grass (BG) [8] = assay: Post-emergence herbicide test; format: in vivo; details: Echinochloa crus-galli, 336 h, 2 lb/acre, two weeks after treatment
# Method in brief: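 Greenhouse pot-grown barnyard grass seedlings sprayed post-emergence at 8 lbs active compound per acre (some at 4 lbs/acre) in 38 gallons per acre, then sub-irrigated. Injury or control rated visually two weeks after treatment.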
# Amaranth pigweed (PW) [9] = assay: Post-emergence herbicide test; format: in vivo, Amaranthus retroflexus; details: 336 h, 2 lb/acre, two weeks after treatment
# Method in brief: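 Visual injury or control ratings were made two weeks after spraying, with greenhouse watering by sub-irrigation only. Treatment was post-emergence, when pigweed seedlings had 1 or 2 true leaves, at 8 lbs active compound per acre (4 lbs/acre formulations also made) in a 38 gallons-per-acre spray volume.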
# Johnson grass (JG) [10] = assay: Post-emergence herbicide test; format: in vivo, Sorgum helepense; details: Sorghum halepense, 336 h, two weeks after treatment
# Method in brief: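 Visual injury or control scores taken 2 weeks after a post-emergence spray of pot-grown plants. Application was 8 lbs/acre (or 4 lbs/acre) in 38 gal/acre. Plants were held in the greenhouse with sub-irrigation only.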
# Cotton (CT) [11] = assay: Pre-emergence herbicide test; format: in vivo, Gossypium hirsutum var. DPL smooth leaf; details: Gossypium hirsutum, 336 h, two weeks after treatment
# Method in brief: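 Visual injury/control ratings were taken at two weeks post-spray. Pots seeded a day earlier received compound pre-emergence at 8 lbs/acre, or 4 lbs/acre, in a 38 gallon/acre spray volume, and were then held in the greenhouse, watered only from below.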
# Amaranth pigweed (PW) [12] = assay: Pre-emergence herbicide test; format: in vivo, Amaranthus retroflexus; details: 336 h, 2 lb/acre, two weeks after treatment
# Method in brief: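 Visual injury or control ratings were made at two weeks on pre-emergence pots, sub-irrigated in the greenhouse. Seeds were sown a day before a hood spray delivering 8 lbs/acre (or 4 lbs/acre) of compound in 38 gallons per acre.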
# [13] = system: Yellow foxtail grass (YF); assay: Post-emergence herbicide test; format: in vivo, Setaria glauca; details: Setaria, 336 h, 2 lb/acre, two weeks after treatment
# Method in brief: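 Visual rating of injury/control made 2 weeks post-spray. Seedlings at a uniform growth stage in soil-filled pots received a hood spray of 8 lbs/acre active compound, 38 gallons/acre volume, with a 4 lbs/acre rate also formulated. Watering was by sub-irrigation only.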
# Turnip (TP) [14] = assay: Post-emergence herbicide test; format: in vivo, Brassica sp.; details: Brassica rapa, post-emergence, 336 h, two weeks after treatment
# Method in brief: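 A greenhouse post-emergence herbicide test on turnip. Seeds were sown on the surface of potting soil in 3' plastic pots, lightly covered with screened soil and watered from below. Planting was timed so seedlings had 1 or 2 true leaves above the cotyledons at spraying, done in a hood with a fixed nozzle. Control or injury was scored by eye after two weeks.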
# Johnson grass (JG) [15] = assay: Pre-emergence herbicide test; format: in vivo, Sorgum helepense; details: Sorghum halepense, 336 h, two weeks after treatment
# Method in brief: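 Visual injury or control rating two weeks post-treatment, after pre-emergence spray of 8 or 4 lbs active per acre (38 gal/acre) onto pots sown the previous day. Greenhouse watering by sub-irrigation only.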
# Cotton (CT) [16] = assay: Post-emergence herbicide test; format: in vivo, Gossypium hirsutum var. DPL smooth leaf; details: Gossypium hirsutum, post-emergence, 336 h, two weeks after treatment
# Method in brief: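 This greenhouse post-emergence test measured how well spray treatments controlled cotton. Seedlings of Gossypium hirsutum var. DPL smooth leaf, with expanded cotyledons and a first true leaf 1' in length, were sprayed with 50 ml formulations in a belt-fed spray hood. They were then returned to the greenhouse and watered only by sub-irrigation. Injury was scored visually as % control after two weeks.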
# Turnip (TP) [17] = assay: Pre-emergence herbicide test; format: in vivo, Brassica sp.; details: Brassica rapa, pre-emergence, 336 h, two weeks after treatment
# Method in brief: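 In this pre-emergence greenhouse test, turnip was seeded on the surface of potting soil in 3' plastic pots, lightly covered with screened soil, and watered from below. One day later the pots were sprayed in a belt-fed spray hood. Watering continued only by sub-irrigation, and percent control was visually scored two weeks after treatment.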
# Bean (BN) [18] = assay: Pre-emergence herbicide test; format: in vivo, Phaseolus vulgaris var. Black Valentine; details: Phaseolus vulgaris, 336 h, two weeks after treatment
# Method in brief: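 Visual injury/control ratings were taken two weeks post-spray on sub-irrigated Phaseolus vulgaris var. Black Valentine. Pots were sown a day before treatment. Pre-emergence spray delivered 8 lbs actual compound per acre (or 4 lbs/acre) at 38 gallons per acre.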
# [19] = system: Yellow foxtail grass (YF); assay: Pre-emergence herbicide test; format: in vivo, Setaria glauca; details: Setaria, 336 h, 2 lb/acre, two weeks after treatment
# Method in brief: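 Visual rating of injury/control made two weeks after a pre-emergence spray of 8 or 4 lbs active per acre (38 gal/acre) onto pots seeded the previous day. Greenhouse watering by sub-irrigation only.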
compound,measurement,setting,value
CNC(=O)Nc1nnc(C(C)(C)C)s1 [Example 86],pest or weed control at 2241.7 g/ha,Barnyard grass (BG) [1]; 2 lb/acre,60%
same,pest or weed control at 8966.8 g/ha,Barnyard grass (BG) [1]; 8 lb/acre,80%
same,pest or weed control,Crabgrass (CG) [2]; 2 lb/acre,90%
same,pest or weed control at 8966.8 g/ha,Crabgrass (CG) [2]; 8 lb/acre,100%
same,LD50,[3],2700 mg/kg
same,pest or weed control at 2241.7 g/ha,Bean (BN) [4]; 2 lb/acre,100%
same,pest or weed control at 8966.8 g/ha,Bean (BN) [4]; 8 lb/acre,100%
same,pest or weed control,Corn (CN) [5]; 2 lb/acre,40%
same,pest or weed control at 8966.8 g/ha,Corn (CN) [5]; 8 lb/acre,100%
same,pest or weed control,Crabgrass (CG) [6]; 2 lb/acre,50%
same,pest or weed control at 8966.8 g/ha,Crabgrass (CG) [6]; 8 lb/acre,80%
same,pest or weed control at 2241.7 g/ha,Corn (CN) [7]; 2 lb/acre,10%
same,pest or weed control at 8966.8 g/ha,Corn (CN) [7]; 8 lb/acre,60%
same,pest or weed control at 2241.7 g/ha,Barnyard grass (BG) [8],50%
same,pest or weed control at 2241.7 g/ha,Amaranth pigweed (PW) [9],100%
same,pest or weed control,Johnson grass (JG) [10]; 2 lb/acre,80%
same,pest or weed control at 8966.8 g/ha,Johnson grass (JG) [10]; 8 lb/acre,100%
same,pest or weed control at 2241.7 g/ha,Cotton (CT) [11]; 2 lb/acre,10%
same,pest or weed control at 8966.8 g/ha,Cotton (CT) [11]; 8 lb/acre,50%
same,pest or weed control at 2241.7 g/ha,Amaranth pigweed (PW) [12],100%
same,pest or weed control,[13],70%
same,pest or weed control at 2241.7 g/ha,Turnip (TP) [14]; 2 lb/acre,100%
same,pest or weed control at 8966.8 g/ha,Turnip (TP) [14]; 8 lb/acre,100%
same,pest or weed control at 2241.7 g/ha,Johnson grass (JG) [15]; 2 lb/acre,60%
same,pest or weed control at 8966.8 g/ha,Johnson grass (JG) [15]; 8 lb/acre,50%
same,pest or weed control at 2241.7 g/ha,Cotton (CT) [16]; 2 lb/acre,100%
same,pest or weed control at 8966.8 g/ha,Cotton (CT) [16]; 8 lb/acre,100%
same,pest or weed control at 2241.7 g/ha,Turnip (TP) [17]; 2 lb/acre,100%
same,pest or weed control at 8966.8 g/ha,Turnip (TP) [17]; 8 lb/acre,100%
same,pest or weed control at 2241.7 g/ha,Bean (BN) [18]; 2 lb/acre,30%
same,pest or weed control at 8966.8 g/ha,Bean (BN) [18]; 8 lb/acre,100%
same,pest or weed control at 2241.7 g/ha,[19],90%

# — patent US4175081A, “5-Substituted thiadiazole ureas” (priority 1977, dated 1979)
